The first assay has as its target Dual specificity protein kinase CLK3 (Homo sapiens) (UniProt P49761). The assay is described as follows: ligand binding to human CDC-like kinase 3 – biophysical, thermal shift, recombinant protein (AID 383). Conditions: at 10 µM, protein 1.5 µM, buffer 10 mM HEPES, pH 7.5, NaCl 150 mM, with 50 µM L-Arg/L-Glu (1:1), active compounds read high.
Dual specificity protein kinase CLK3 (Homo sapiens), sequence (P49761 whole entry, looked up): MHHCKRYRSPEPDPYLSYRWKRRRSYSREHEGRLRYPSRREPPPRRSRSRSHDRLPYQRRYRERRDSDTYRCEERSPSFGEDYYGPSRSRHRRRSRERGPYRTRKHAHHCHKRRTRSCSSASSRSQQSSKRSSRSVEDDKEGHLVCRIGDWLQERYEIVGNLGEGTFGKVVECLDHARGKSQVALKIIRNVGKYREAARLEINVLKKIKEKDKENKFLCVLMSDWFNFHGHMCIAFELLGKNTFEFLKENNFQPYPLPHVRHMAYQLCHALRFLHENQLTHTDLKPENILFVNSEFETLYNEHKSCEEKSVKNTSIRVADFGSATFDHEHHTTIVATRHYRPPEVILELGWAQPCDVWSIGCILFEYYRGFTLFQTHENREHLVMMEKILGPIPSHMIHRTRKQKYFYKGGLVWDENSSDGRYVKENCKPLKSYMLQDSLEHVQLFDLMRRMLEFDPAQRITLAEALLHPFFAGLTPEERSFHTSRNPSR
`Cc1[nH]c(/C=C2\C(=O)Nc3ccc(S(=O)(=O)N(C)c4cccc(Cl)c4)cc32)c(C)c1C(=O)N1CCN(C)CC1`: the Tm shift was 3.7 Celsius.

Take `O=Nc1c(-c2c(O)[nH]c3ccc(S(O)(O)O)cc23)[nH]c2ccccc12`: the Tm shift was 4.7 Celsius. Consider `OCC(O)CCO/N=C1/C(c2c(O)[nH]c3ccccc23)=Nc2ccccc21` (stereo not drawn), for which the Tm shift is 4 Celsius. Consider `N#C/C(=C1\Nc2ccccc2S1)c1ccnc(NCCc2cccnc2)n1`, for which the Tm shift was 4.9 Celsius. Take `O=Nc1c(-c2c(O)[nH]c3ccc(I)cc23)[nH]c2ccccc12`: the Tm shift is 4.5 Celsius.

As to `O=C1NC(=O)C(c2c[nH]c3ccccc23)=C1c1c[nH]c2ccccc12`, the Tm shift was 3.2 Celsius. Consider `Cc1cc(Nc2nc(-c3ccccc3)nc3ccccc23)n[nH]1`, for which the Tm shift is 4.1 Celsius.

Regarding `O=C(c1ccc(Nc2nccc(-c3cc4ccccc4s3)n2)cc1)N1CCC(N2CCCC2)CC1`, the Tm shift is 6.3 Celsius.

Staying with this assay, now noted: at 10 µM, protein 1.7 µM, buffer 10 mM HEPES, pH 7.5, NaCl 150 mM, with 50 µM L-Arg/L-Glu (1:1), active compounds read high.
As to `COc1ccc(Nc2nc(N)c(C(=O)c3ccc(Cl)cc3)s2)cc1`, the Tm shift is 3.7 Celsius. Regarding `COc1ccc(Nc2nc(N)c(C(=O)c3ccc(OC)cc3)s2)cc1`, the Tm shift is 4.3 Celsius. Turning to `Nc1nc(Nc2cccc(Cl)c2)sc1C(=O)c1ccc(F)cc1`, the Tm shift was 3.4 Celsius.

Take `Nc1nc(Nc2ccc(F)cc2)sc1C(=O)c1ccccc1`: the Tm shift is 3.2 Celsius.

The same assay, now with this note: at 10 µM, protein 1.8 µM, buffer 10 mM HEPES, pH 7.5, NaCl 150 mM, with 50 µM L-Arg/L-Glu (1:1), active compounds read high.
With `Cn1cc(/C=C2\C(=O)Nc3ccc(S(N)(=O)=O)cc32)c2ccccc21`, the Tm shift was 3.2 Celsius. Same read-out and setting: in the case of `O=Nc1c(-c2c(O)[nH]c3ccccc23)[nH]c2ccccc12` it was 4.6 Celsius; in that of `CN(C)CCCn1cc(C2=C(c3c[nH]c4ccccc34)C(=O)NC2=O)c2ccccc21`, 3.5 Celsius; in that of `COc1cc(/C=C/C(=O)CC(=O)/C=C/c2ccc(O)c(OC)c2)ccc1O`, 5.3 Celsius. In the case of `CC1N=C2SC=CN2C(=O)C1CCN1CCC(=C(c2ccccc2)c2ccc(F)cc2)CC1` (stereo not drawn), the Tm shift is 3.8 Celsius. In the case of `NC1=N/C(=C2/CCNC(=O)c3[nH]c(Br)cc32)C(=O)N1`, the Tm shift was 7.2 Celsius. `CC(C)n1cnc2c(Nc3cccc(Cl)c3)nc(NCCO)nc21`: the Tm shift was 4.6 Celsius. `Cc1c2ccncc2c(C)c2c1[nH]c1ccccc12`: the Tm shift was 4.2 Celsius. For the molecule `O=c1cc(-c2ccc(O)cc2)oc2cc(O)cc(O)c12`, the Tm shift is 3.1 Celsius. For the molecule `Nc1ncnc2c1c(I)cn2[C@@H]1O[C@H](CO)C(O)C1O` (stereo partly drawn), the Tm shift is 7.5 Celsius. Regarding `CN(C)S(O)(O)c1ccc2c(c1)/C(=C/c1cc3c([nH]1)CCCC3)C(=O)N2`, the Tm shift is 4.1 Celsius. As for `NC(=O)c1ccc(-c2nc(-c3ccc4c(c3)OCCO4)c(-c3ccccn3)[nH]2)cc1`, the Tm shift was 4.8 Celsius.

Still in this assay, the particulars now being: at 10 µM, protein 2 µM, buffer 10 mM HEPES, NaCl 150 mM, with 50 mM Arg/Glu, active compounds read high.
As to `CC(C)C(CO)Nc1nc(Nc2cccc(Cl)c2)c2ncn(C(C)C)c2n1` (stereo not drawn), the Tm shift was 3.88 Celsius. Same read-out and setting: then `CC(C)[C@@H](CO)Nc1ccc2ncc(-c3ccc(C#N)cc3)n2n1`, with 4.58 Celsius; and `N=C(N)SCCCn1cc(C2=C(c3c[nH]c4ccccc34)C(=O)NC2=O)c2ccccc21`, with 3.37 Celsius.

Turning to `CC(=O)Nc1cccc(-c2cnc3ccc(N[C@H](CO)C(C)C)nn23)c1`, the Tm shift was 4.32 Celsius. As to `CCC(CO)Nc1ccc2ncc(-c3ccc(O)cc3)n2n1` (stereo not drawn), the Tm shift was 4.43 Celsius. On the same count and under the same terms, then `NC1=N/C(=C2/CCNC(=O)c3[nH]c(Br)cc32)C(=O)N1`, with 8.87 Celsius; and `Nc1nc(Nc2ccc(S(N)(=O)=O)cc2)nn1C(=S)Nc1c(F)cccc1F`, with 15.1 Celsius. As to `CC(C)n1cnc2c(Nc3cccc(Cl)c3)nc(NCCO)nc21`, the Tm shift was 3.76 Celsius. Consider `CCC(CO)Nc1ccc2ncc(-c3ccc(C(=O)O)cc3)n2n1` (stereo not drawn), for which the Tm shift is 3.99 Celsius. As for `CC(=O)c1cccc(-c2cnc3ccc(N[C@H](CO)C(C)C)nn23)c1`, the Tm shift is 3.77 Celsius. Consider `Nc1ncnc2c1c(I)cn2[C@@H]1O[C@H](CO)C(O)C1O` (stereo partly drawn), for which the Tm shift was 7.25 Celsius. For the molecule `O=c1c(O)c(-c2ccc(O)c(O)c2)oc2cc(O)cc(O)c12`, the Tm shift was 4.2 Celsius. On to `NC1=N/C(=C2\CCNC(=O)c3[nH]ccc32)C(=O)N1`, for which the Tm shift was 4.35 Celsius.

Staying with this assay, now noted: at 10 µM, protein 2 µM, buffer 10 mM HEPES, pH 7.5, NaCl 150 mM, active compounds read high.
`CC(C)[C@@H](CO)Nc1ccc2ncc(-c3cccc(OC(F)(F)F)c3)n2n1`: the Tm shift is 4.02 Celsius. Same read-out and setting: then `CCC(CO)Nc1ccc2ncc(-c3cccc(OC(F)(F)F)c3)n2n1` (stereo not drawn), with 3.66 Celsius; and `N#Cc1ccc(-c2cnc3ccc(NC4CCOCC4)nn23)cc1`, with 3.76 Celsius. Take `COc1cccc(-c2cnn3ccc(Nc4cccc(Cl)c4)nc23)c1`: the Tm shift was 4.61 Celsius. As to `CCC(CO)Nc1ccc2ncc(-c3ccc(F)c(Cl)c3)n2n1` (stereo not drawn), the Tm shift is 3.6 Celsius. For `CCC(CO)Nc1ccc2ncc(-c3ccc(OC)nc3)n2n1` (stereo not drawn), the Tm shift is 4.48 Celsius. Take `CC(C)[C@@H](CO)Nc1ccc2ncc(-c3cccc(O)c3)n2n1`: the Tm shift was 4.02 Celsius.

For `Clc1cccc(Nc2ccn3ncc(-c4ccc5c(c4)OCO5)c3n2)c1`, the Tm shift is 6.07 Celsius. As to `CCC(CO)Nc1ccc2ncc(-c3cccc(C(C)=O)c3)n2n1` (stereo not drawn), the Tm shift is 3.42 Celsius. On to `Nc1ccc(-c2cnn3ccc(Nc4cccc(Cl)c4)nc23)cc1`, for which the Tm shift is 3.58 Celsius.

Still in this assay, the particulars now being: at 10 µM, protein 2 µM, buffer 50 mM HEPES, pH 7.5, NaCl 500 mM, active compounds read high.
Consider `CCN1/C(=C/C(C)=O)Sc2ccc(OC)cc21`, for which the Tm shift is 3.16 Celsius. `O=c1c(O)c(-c2cc(O)c(O)c(O)c2)oc2cc(O)cc(O)c12`: the Tm shift was 3.25 Celsius.

For `O=c1cc(-c2ccc(O)c(O)c2)oc2cc(O)cc(O)c12`, the Tm shift was 4.28 Celsius. For the molecule `NCCCn1cc(C2=C(c3c[nH]c4ccccc34)C(=O)NC2=O)c2ccccc21`, the Tm shift was 3.18 Celsius. `O=C1C(=O)C(c2cc(O)c(O)c(O)c2)Oc2cc(O)cc(O)c21` (stereo not drawn): the Tm shift was 3.08 Celsius. Regarding `O=c1c(O)c(-c2ccc(O)c(O)c2)oc2cc(O)cc(O)c12`, the Tm shift is 3.12 Celsius.

The values are drawn from PubChem BioAssay AID383 (SGCOxCompounds, 2006).
